What was measured:
JCPyV [1] = system: JCPyV; parameters: method as in PMID 26600871, PMID 21402853; conditions: relative to cidofovir; cited from earlier work
SVG-A cells = assay: Viral ToxGlo toxicity assay in SVG-A cells; format: cell-based, human
Experimental: (§1) SVG-A cells were plated at 5,000 cells per well, and NHAs were plated at 10,000 per well in a Corning 96-well tissue culture-treated plate. The following day, the cells were treated with a twofold dilution series of either quercetin, myricetin, or fisetin, ranging from 20 to 0.15625 µM, in phenol-free media. SVG-A cells were incubated with drug for 72 h in the incubator at 37°C with 5% CO2. NHA cells were incubated with drug for 120 h at 37°C with 5% CO2 to match the exposure times for infection. After incubation, a luciferase-based Viral ToxGlo Assay (Promega) was added to each well according to the manufacturer’s protocol. Viral ToxGlo measures the amount of ATP activity present through a luminescent signal. The cells were incubated with Viral ToxGlo lytic reagent for 10 min at 37°C with 5% CO2. Lysed cell suspension was then transferred to an opaque plate, and luciferase activity was read on the Glomax Multi-detection System (Promega, 0.5 s integration time) and normalized to a vehicle control.

NHA cells = assay: Viral ToxGlo toxicity assay in NHA cells; format: cell-based, human
Experimental: as §1

JCPyV [2] = assay: JCPyV infection assay in SVG-A cells (VP1 indirect immunofluorescence); format: cell-based; conditions: JC polyomavirus, 2 h pretreatment, MOI 10, drug maintained 72 h, normalized to DMSO
Experimental: (§2) SVG-A cells were plated at 5,000 cells per well, and NHAs were plated at 10,000 per well. The following day, the cells were treated with the above-described dose curve of either quercetin, fisetin, or myricetin, ranging from 10 to 0.15625 µM. A DMSO (vehicle) control that was volume matched to the highest volume of each flavonol was included. The plates were pretreated with drug for 2 h at 37°C with 5% CO2. Next, the cells were incubated in 1× MEM with purified JCPyV (MOI of 10) in the continued presence of either quercetin, myricetin, fisetin, or a DMSO vehicle control matched to the highest concentration of each flavonol. Plates were incubated for 2 h at 37°C with 5% CO2 and rocked every 15 min to ensure homogenous distribution of virus in each well. Virus-containing media were then aspirated and replaced with either quercetin, myricetin, fisetin, or a volume-matched DMSO control in complete media. SVG-A cells were incubated for 72 h in the incubator at 37°C with 5% CO2. Astrocytes were incubated for 120 h at 37°C with 5% CO2. Plates were fixed in 100% ice-cold methanol and quantified using indirect immunofluorescence staining for the late viral protein VP1.
(§3) To quantify the number of infected cells, SVG-A and NHA cells were fixed with ice-cold 100% methanol at −20°C for at least 15 min to permeabilize cells. The cells were rehydrated with 1× phosphate-buffered saline (PBS) for 15 min and rocked at room temperature. […] The cells were imaged on a Ti2-E Inverted Fluorescence Microscope (Nikon) using the 20× objective. For each plate, a random subset of 10 fields was chosen to image per well, and three wells were analyzed per condition. Images were analyzed using Elements High Content Imaging software (Nikon) to count total cells versus VP1+ cells.
(§4) A linear regression between successive points was used to calculate the half maximal inhibitory values (IC50) from the dose curves of each drug. […] Significance was calculated using Student’s two-tailed t-test in GraphPad Prism. […]

JCPyV [3] = assay: JCPyV infection assay in NHA cells (VP1 indirect immunofluorescence); format: cell-based; conditions: JC polyomavirus, 2 h pretreatment, MOI 10, drug maintained 120 h, normalized to DMSO
Experimental: as §2, §3, §4

JCPyV [4] = assay: Infection time course in SVG-A cells; format: cell-based, JC polyomavirus; conditions: 10 µM, added at -2, 0, 2 or 24 h relative to infection, VP1+ at 72 h post-infection
Experimental: (§5) SVG-A cells were plated at 5,000 cells per well, and NHAs were plated at 10,000 per well in a Corning 96-well tissue culture-treated plate. The following day, the cells were treated at the following four time points: 2 h before infection (−2 h; pretreatment), 0 h (co-treatment at the time of infection), 2 hs after infection (post treatment), or 24 h after infection (post-treatment). At the 2-h pretreatment time point, quercetin, myricetin, fisetin, or a volume-matched DMSO control was added in complete media. For all other time points, complete media were administered as a mock treatment. The plates were incubated for 2 h at 37°C and 5% CO2. At the 0-h time point, purified JCPyV (MOI of 10) in unsupplemented media was added to each of the time points, either alone or in the presence of drug, as appropriate for each treatment condition. In the −2 h and 0 h treated wells, quercetin, myricetin, fisetin, or a volume-matched DMSO control was added as co-treatment. All plates were infected with purified JCPyV at the same time, for 2 h at 37°C and 5% CO2. At the 2-h time point, the virus was aspirated and flavonols in complete media were added to the −2, 0, and 2 h time points. Complete media without drug or vehicle control was administered to the 24-h time point. Twenty-four hours after infection, flavonols were added to the 24-h time point, in complete media. SVG-A cells were incubated at 37°C and 5% CO2 for 72 h after infection, and NHA cells were incubated at 37°C and 5% CO2 for 120 h after infection. Plates were then stained and infection was quantified via indirect immunofluorescence.
as §3, with “cells.” for “cells. The cells were rehydrated with 1× phosphate-buffered saline (PBS) for 15 min and rocked at room temperature.”

JCPyV [5] = assay: Infection time course in NHA cells; format: cell-based, JC polyomavirus; conditions: added at -2, 0, 2 or 24 h relative to infection, VP1+ at 120 h post-infection
Experimental: as §5
as §3, with “cells.” for “cells. The cells were rehydrated with 1× phosphate-buffered saline (PBS) for 15 min and rocked at room temperature.”

JCPyV [6] = assay: Viral spread assay in SVG-A cells; format: cell-based, JC polyomavirus; conditions: 10 µM added 24 h post-infection, VP1+ at 3, 6 and 9 days post-infection, vs DMSO
Experimental: (§6) For the viral spread assay, the cells were plated at a density of 5,000 cells per well for SVG-A in complete MEM, or 10,000 cells per well for NHA in complete AM, and incubated overnight at 37°C with 5% CO2. The next day, the cells were infected with purified JCPyV (MOI of 10) for 2 h to establish an infection without the presence of drugs. After infection, JCPyV media were aspirated and plates were incubated with complete media as required for each cell type. One day post-infection, the cells were incubated with the highest nontoxic dose (for SVG-A: 10 µM quercetin, 10 µM myricetin, 10 µM fisetin; for NHA: 5 µM quercetin, 10 µM myricetin, 5 µM fisetin) or a volume-matched DMSO control. Plates were incubated at 37°C with 5% CO2 and infection was measured by indirect immunofluorescence quantification at 3, 6, and 9 days post-infection in SVG-As or 5, 10, and 15 days post-infection for NHAs. At every time point, the cells were either fixed in ice-cold methanol or were supplemented with an additional 50 µL of cell media that consisted of the matched concentration of quercetin, fisetin, myricetin, or DMSO vehicle control. Cell counts were obtained by counting the total number of cells in 10 random fields per well (3 wells total per replicate) on the Ti2-E Inverted Fluorescent Microscope (Nikon).
as §3, with “rocked at room temperature. Subsequent permeabilization was conducted with incubation in 1% Triton-X (USB) for 10 min with rocking” for “rocked”

JCPyV [7] = assay: Viral spread assay in NHA cells; format: cell-based, JC polyomavirus; conditions: VP1+ at 5, 10 and 15 days post-infection, vs DMSO
Experimental: as §6
as §3, with “rocked at room temperature. Subsequent permeabilization was conducted with incubation in 1% Triton-X (USB) for 10 min with rocking” for “rocked”

[8] = parameters: method as in PMID 29317180; conditions: amplification of hippocampal long-term potentiation; cited from earlier work
[9] = parameters: method as in PMID 14980703, PMID 28528183; conditions: U251 cells; cited from earlier work

Compound	concentration reducing JCPyV DNA copy number, fold smaller than cidofovir (JCPyV [1])	highest nontoxic dose (SVG-A cells; human, 72 h)	highest nontoxic dose (NHA cells; human, 120 h)	IC50 (JCPyV [2])	IC50 (JCPyV [3])	inhibition of JCPyV infection by time of addition (JCPyV [4])	inhibition of JCPyV infection by time of addition (JCPyV [5]; 5 µM)	inhibition of viral spread in established infection (JCPyV [6])	inhibition of viral spread in established infection (JCPyV [7]; 5 µM added 24 h post-infection)	crossing of the BBB in vivo [8]	highest nontoxic dose (SVG-A cells; SVG-A cells)	highest nontoxic dose (NHA cells; NHA cells)	inhibition of JCPyV infection by time of addition (JCPyV [5]; 10 µM)	inhibition of viral spread in established infection (JCPyV [7]; 10 µM added 24 h post-infection)	crossing of the BBB in in vitro models [9]
CCCCCCCCCCCCCCCCOCCCOP(=O)(O)CO[C@H](CO)Cn1ccc(N)nc1=O [Brincidofovir]	100 ×	–	–	–	–	–	–	–	–	–	–	–	–	–	–
O=c1c(O)c(-c2ccc(O)c(O)c2)oc2cc(O)ccc12 [fisetin]	–	10 µM	5 µM	5.76 µM	3.72 µM	inhibited infection at all time points up to and including 24 h post-infection	maintained their ability to inhibit infection even when administered at 24 h post-infection	inhibit viral spread in SVG-A cells at 3, 6, and 9 days post-infection	significantly reduce JCPyV infection at all time points	found to cross the BBB in vivo	–	–	–	–	–
O=c1c(O)c(-c2cc(O)c(O)c(O)c2)oc2cc(O)cc(O)c12 [myricetin]	–	–	–	8.07 µM	4.47 µM	effective only when given 2 h before infection or at the time of infection	–	no significant reduction in viral spread compared to DMSO control	–	–	10 µM	10 µM	lost by 2 h post-infection	without effect	–
O=c1c(O)c(-c2ccc(O)c(O)c2)oc2cc(O)cc(O)c12 [quercetin]	–	–	–	6.04 µM	2.51 µM	inhibited infection at all time points up to and including 24 h post-infection	maintained their ability to inhibit infection even when administered at 24 h post-infection	inhibit viral spread in SVG-A cells at 3, 6, and 9 days post-infection	significantly reduce JCPyV infection at all time points	–	10 µM	5 µM	–	–	up to 65%
